Structures can show the parent of a compound that is named as a salt.

Sequence of Full-length inactive AKT1 (P31749 whole entry): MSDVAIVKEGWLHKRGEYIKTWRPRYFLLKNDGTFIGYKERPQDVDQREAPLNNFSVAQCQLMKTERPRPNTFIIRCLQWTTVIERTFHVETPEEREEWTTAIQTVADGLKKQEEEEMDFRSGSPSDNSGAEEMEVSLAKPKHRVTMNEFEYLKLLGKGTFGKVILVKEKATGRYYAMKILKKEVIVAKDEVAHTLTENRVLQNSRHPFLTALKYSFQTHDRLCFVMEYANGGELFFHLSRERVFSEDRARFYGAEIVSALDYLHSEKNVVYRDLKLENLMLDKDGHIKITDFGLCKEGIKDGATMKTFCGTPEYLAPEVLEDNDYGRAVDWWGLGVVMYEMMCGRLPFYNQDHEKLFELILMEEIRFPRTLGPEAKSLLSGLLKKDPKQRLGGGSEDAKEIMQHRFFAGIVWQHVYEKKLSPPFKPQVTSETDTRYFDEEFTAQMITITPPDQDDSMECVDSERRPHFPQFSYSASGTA

One experiment addresses Full-length inactive AKT1 (Homo sapiens, UniProt P31749). Put plainly: Inactive Akt Alpha Screen Assay. It is filed as biochemical. The settings on record: AlphaScreen assay (values not marked with *); read-out: Akt1 IC50, (AlphaScreen) (μM) (or if marked with “*” HTRF assay). As to the method: AKT1 activity was assayed using the GSK3-derived biotinylated peptide substrate, crosstide (biotin-[…]), and AlphaScreen™ (Amplified Luminescent Proximity Homogeneous Assay) technology. AKT1 activation was achieved by the addition of the activating kinases PDK1 and MAPKAPK2, lipid vesicles, and ATP. The extent of peptide phosphorylation was determined using a phospho-AKT substrate antibody and acceptor beads conjugated to Protein A and donor beads conjugated to streptavidin that bind to the biotin on the peptide. Excitation of the donor beads converted ambient oxygen to excited singlet oxygen which, when in close proximity to acceptor beads, reacted with acceptor beads resulting in signal amplification.
Assay plates were incubated for 90 minutes at room temperature in the dark, and the plates were read on a Perkin Elmer Envision Multilabel plate reader (excitation wavelength: […], emission wavelength: 570 nm).
Broadly, the IC50 is the concentration that gives 50% inhibition. Take `COc1cccc(-c2ccc3nc(-c4cccnc4N)n(-c4ccc(C5(N)CCC5)cc4)c3n2)c1C#N` [Example 444, 2-{3-[4-(1-aminocyclobutyl)phenyl]-2-(2-aminopyridin-3-yl)-3H-imidazo[4,5-b]pyridin-5-yl}-6-methoxybenzonitrile]: the IC50 was found to be 0.0068 µM. Take `CNC(=O)c1ccc(-c2ccc3nc(-c4cccnc4N)n(-c4ccc(C5(N)CCC5)cc4)c3n2)cc1F` [Example 450, 4-{3-[4-(1-aminocyclobutyl)phenyl]-2-(2-aminopyridin-3-yl)-3H-imidazo[4,5-b]pyridin-5-yl}-2-fluoro-N-methylbenzamide]: the IC50 was found to be 0.0072 µM. Still for that read-out and setting: then `Nc1ncccc1-c1nc2ccc(-c3ccc4c(c3)CC(=O)N4)nc2n1-c1ccc(C2(N)CCC2)cc1` [Example 453, 5-{3-[4-(1-aminocyclobutyl)phenyl]-2-(2-aminopyridin-3-yl)-3H-imidazo[4,5-b]pyridin-5-yl}-1,3-dihydro-2H-indol-2-one], with 0.0028 µM; and `Nc1ncccc1-c1nc2ccc(-c3cc(O)ccc3F)nc2n1-c1ccc(C2(N)CCC2)cc1` [Example 437, 3-{3-[4-(1-aminocyclobutyl)phenyl]-2-(2-aminopyridin-3-yl)-3H-imidazo[4,5-b]pyridin-5-yl}-4-fluorophenol], with 0.014 µM. Still for that read-out and setting: in the case of `Nc1ncccc1-c1nc2ccc(-c3ccc(N4CCOCC4)cc3)nc2n1-c1ccc(C2(N)CCC2)cc1` [Example 465, 3-{3-[4-(1-aminocyclobutyl)phenyl]-5-(4-morpholin-4-ylphenyl)-3H-imidazo[4,5-b]pyridin-2-yl}pyridin-2-amine hydrochloride] it was 0.0058 µM; in that of `CNC(=O)c1cc(F)cc(-c2ccc3nc(-c4cccnc4N)n(-c4ccc(C5(N)CCC5)cc4)c3n2)c1` [Example 432, 3-{3-[4-(1-aminocyclobutyl)phenyl]-2-(2-aminopyridin-3-yl)-3H-imidazo[4,5-b]pyridin-5-yl}-5-fluoro-N-methylbenzamide], 0.0064 µM.

Staying with this experiment, now noted: values not marked with "*": AlphaScreen assay; read-out: Akt1 IC50, (AlphaScreen).
For `Nc1ncccc1-c1nc2cccnc2n1-c1ccc(CNC(=O)c2ccc(C(F)(F)F)cc2)cc1` [Example 63], the IC50 was 0.79 µM. On the same count and under the same terms, in the case of `Nc1ncccc1-c1nc2cccnc2n1-c1ccc(CNC(=O)c2nccc3ccccc23)cc1` [Example 20] it was 0.354 µM; in that of `COc1cccc(NC(=O)Cc2ccc(-n3c(-c4cccnc4N)nc4cccnc43)cc2)c1` [Example 119, hydrochloride], 0.233 µM. Same read-out and setting: in the case of `CNc1ccccc1C(=O)NCc1ccc(-n2c(-c3cccnc3N)nc3cccnc32)cc1` [Example 57] it was 1.52 µM.

The experiment is the same for the next values; noted with them: values not marked with "*"; read-out: Akt1 IC50, (AlphaScreen).
For `Cc1cnc2c(c1)nc(-c1cccnc1N)n2-c1ccc(CNC(=O)c2ccc(C)c(C)c2)cc1` [Example 269, N-(4-(2-(2-aminopyridin-3-yl)-6-methyl-3H-imidazo[4,5-b]pyridin-3-yl)benzyl)-3,4-dimethylbenzamide], the IC50 stood at 0.16 µM. The same measure, in the same setting: in the case of `CC(=O)Nc1cccc(-c2ccc3nc(-c4cccnc4N)n(-c4ccc(CNC(=O)c5cccc(F)c5)cc4)c3n2)c1` [Example 204, N-(4-(5-(3-acetamidophenyl)-2-(2-aminopyridin-3-yl)-3H-imidazo[4,5-b]pyridin-3-yl)benzyl)-3-fluorobenzamide] it was 0.0073 µM; in that of `Nc1ncccc1-c1nc2ccc(-c3c[nH]c(=O)[nH]c3=O)nc2n1-c1ccc(CNC(=O)c2cccc(F)c2)cc1` [Example 311, N-(4-(2-(2-aminopyridin-3-yl)-5-(2,4-dioxo-1,2,3,4-tetrahydropyrimidin-5-yl)-3H-imidazo[4,5-b]pyridin-3-yl)benzyl)-3-fluorobenzamide], 0.029 µM.

Consider `Nc1ncccc1-c1nc2ccc(-c3cccc(O)c3)nc2n1-c1ccc(C2(N)CCC2)cc1` [Example 389, 3-(3-(4-(1-aminocyclobutyl)phenyl)-2-(2-aminopyridin-3-yl)-3H-imidazo[4,5-b]pyridin-5-yl)phenol], for which the half-maximal inhibitory concentration (IC50) amounted to 0.0016 µM. Still for that read-out and setting: then `CC(=O)Nc1cccc(-c2cnc3c(c2)nc(-c2cccnc2N)n3-c2ccc(C3(N)CCC3)cc2)c1` [Example 359, N-(3-(3-(4-(1-aminocyclobutyl)phenyl)-2-(2-aminopyridin-3-yl)-3H-imidazo[4,5-b]pyridin-6-yl)phenyl)acetamide], with 0.057 µM. Same read-out and setting: in the case of `Nc1ncccc1-c1nc2cc(Br)cnc2n1-c1ccc(CNS(=O)(=O)c2ccccc2F)cc1` [Example 171, N-{4-[2-(2-aminopyridin-3-yl)-6-bromo-3H-imidazo[4,5-b]pyridin-3-yl]benzyl}-2-fluorobenzenesulfonamide] it was 0.35 µM. The same measure, in the same setting: in the case of `NCc1ccc(-n2c(-c3cccnc3N)nc3ccc(-c4cccc(C(=O)O)c4)nc32)cc1` [Example 357, 3-(3-(4-(aminomethyl)phenyl)-2-(2-aminopyridin-3-yl)-3H-imidazo[4,5-b]pyridin-5-yl)benzoic acid] it was 0.027 µM; in that of `Cc1ccc(C)c(S(=O)(=O)NCc2ccc(-n3c(-c4cccnc4N)nc4cc(Br)cnc43)cc2)c1` [Example 167, N-{4-[2-(2-aminopyridin-3-yl)-6-bromo-3H-imidazo[4,5-b]pyridin-3-yl]benzyl}-2,5-dimethylbenzenesulfonamide], 0.48 µM; in that of `Nc1ncccc1-c1nc2cc(Br)cnc2n1-c1ccc(CNS(=O)(=O)c2ccc(F)cc2)cc1` [Example 158, N-{4-[2-(2-aminopyridin-3-yl)-6-bromo-3H-imidazo[4,5-b]pyridin-3-yl]benzyl}-4-fluorobenzenesulfonamide], 0.49 µM. With `COC(=O)c1cccc(C(=O)NCc2ccc(-n3c(-c4cccnc4N)nc4cc(C)cnc43)cc2)c1` [Example 270, methyl 3-((4-(2-(2-aminopyridin-3-yl)-6-methyl-3H-imidazo[4,5-b]pyridin-3-yl)benzyl)carbamoyl)benzoate], the IC50 came to 0.24 µM.

For the compound `Cc1cnc2c(c1)nc(-c1cccnc1N)n2-c1ccc(CNC(=O)C2CCCC2)cc1` [Example 273, N-(4-(2-(2-aminopyridin-3-yl)-6-methyl-3H-imidazo[4,5-b]pyridin-3-yl)benzyl)cyclopentanecarboxamide], the IC50 came out at 0.22 µM. Still for that read-out and setting: in the case of `Cc1ccc2nc(-c3cccnc3N)n(-c3ccc(CNC(=O)c4cccn4C)cc3)c2n1` [Example 262, N-(4-(2-(2-aminopyridin-3-yl)-5-methyl-3H-imidazo[4,5-b]pyridin-3-yl)benzyl)-1-methyl-1H-pyrrole-2-carboxamide] it was 0.15 µM; in that of `Cc1ccc2nc(-c3cccnc3N)n(-c3ccc(CNC(=O)c4ccccc4)cc3)c2n1` [Example 246, N-(4-(2-(2-aminopyridin-3-yl)-5-methyl-3H-imidazo[4,5-b]pyridin-3-yl)benzyl)benzamide], 0.02 µM; in that of `COc1cc(F)cc(-c2ccc3nc(-c4cccnc4N)n(-c4ccc(C5(N)CCC5)cc4)c3n2)c1` [Example 420, 3-{3-[4-(1-aminocyclobutyl)phenyl]-5-(3-fluoro-5-methoxyphenyl)-3H-imidazo[4,5-b]pyridin-2-yl}pyridin-2-amine], 0.0054 µM.

Consider `Nc1ncccc1-c1nc2ccc(-c3ccsc3)nc2n1-c1ccc(C2(N)CCC2)cc1` [Example 427, 3-{3-[4-(1-aminocyclobutyl)phenyl]-5-(3-thienyl)-3H-imidazo[4,5-b]pyridin-2-yl}pyridin-2-amine], for which the concentration for half-maximal inhibition (IC50) turned out to be 0.01 µM.

The values above are taken from patent publication US8501770B2 (ArQule, Inc., priority 2009, dated 2013).
